# Assay: recombinant UMI read abundance after kanamycin selection (control-corrected) (log10(CPM+1)); higher = more efficient recombination; extreme values may be limits of the assay; sequences stand for … in AGTGCAGAGAAAATCGGCCAGTTTTCTCTGCCTGCAGTCCGCATGCCGTGGGACCCCTTGGGTTCTAACCTGTTGCCTAGATTTATGCAGCGGACTGCCTTTCTCCCAAAGTGATAAACCGG…AGGTTGGTTTCACT; site = the 11-nt donor
# Procedure, shortened: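 Values, expressed as log10(CPM+1), derive from recombinant UMI counts converted to CPM, averaged across replicates and scaled by control-derived factors. Plating was with IPTG (0.07 mM) plus kanamycin or unselected, two replicates each. The screen pooled donor and donor-binding-loop pairs for the IS621 bridge recombinase in Escherichia coli.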
# 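Note: IS621 bridge recombinase in Escherichia coli cells against a fixed T5 target plasmid.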
row,Sequence,recombinant UMI read abundance (log10)
1,GGAGTGCCATGGACCGGTTTTCCCGGTAATCCGTATTTGGT (site GGAGTGCCTAC),0.0291
2,GGAGTGCCATGGACCGGTTTTCCCGGTAATCCGTATTTGGT (site GGAGTGGCTAC),0.00926
3,GGAGTGCCATGGACCGGTTTTCCCGGTAATCCGTATTTGGT (site GGAGTGTCTAC),1.21
4,GGAGTGGCATGGACCGGTTTTCCCGGTAATCCGTATTTGGA (site GGAGTGGCTAC),0.0116
5,GGAGTGGCATGGACCGGTTTTCCCGGTAATCCGTATTTGGA (site GGAGTGGCTCC),0.019
6,GGAGTGGCATGGACCGGTTTTCCCGGTAATCCGTATTTGGA (site GGAGTGGCTGC),0
7,GGAGTGGCATGGACCGGTTTTCCCGGTAATCCGTATTTGGA (site GGAGTGGCTTC),0.645
8,GGATATACATGGACCGGTTTTCCCGGTAATCCGTATTTGCC (site GGATAAACTGG),0
9,GGATATACATGGACCGGTTTTCCCGGTAATCCGTATTTGCC (site GGATACACTGG),0.982
10,GGATATACATGGACCGGTTTTCCCGGTAATCCGTATTTGCC (site GGATAGACTGG),0.756
11,GGATATACATGGACCGGTTTTCCCGGTAATCCGTATTTGCC (site GGATATACTGG),1.81
12,GGATCACCATGGACCGGTTTTCCCGGTAATCCGTATTTGCT (site CGATCATCTAG),0
13,GGATCACCATGGACCGGTTTTCCCGGTAATCCGTATTTGCT (site GGATCACCTAG),0.0128
14,GGATCAGCATGGACCGGTTTTCCCGGTAATCCGTATTTGAA (site GGATCAGCTTT),1.19
15,GGATCATCATGGACCGGTTTTCCCGGTAATCCGTATTTGCC (site CGATCATCTAG),0
16,GGATCATCATGGACCGGTTTTCCCGGTAATCCGTATTTGCC (site GGATCATCTGG),0.722
17,GGATCGTCATGGACCGGTTTTCCCGGTAATCCGTATTTGCC (site GGATCGTCTGG),2.05
18,GGATGCACATGGACCGGTTTTCCCGGTAATCCGTATTTGTA (site GAATGCACTTA),0.31
19,GGATGCACATGGACCGGTTTTCCCGGTAATCCGTATTTGTA (site GCATGCACTTA),0.0182
20,GGATGCACATGGACCGGTTTTCCCGGTAATCCGTATTTGTA (site GGATGCACTTA),1.62
21,GGATGCACATGGACCGGTTTTCCCGGTAATCCGTATTTGTA (site GTATGCACTTA),0.439
22,GGATGCTCATGGACCGGTTTTCCCGGTAATCCGTATTTGCT (site GGATGCTCTAG),3
23,GGATTTACATGGACCGGTTTTCCCGGTAATCCGTATTTGAG (site GGATTTACTCT),0.713
24,GGCAAATCATGGACCGGTTTTCCCGGTAATCCGTATTTGCT (site GGCAAATCTAG),0
25,GGCAACCCATGGACCGGTTTTCCCGGTAATCCGTATTTGTT (site GGCAACCCTAA),0.0163

row,Sequence,recombinant UMI read abundance (log10)
1,GGCAACCCATGGACCGGTTTTCCCGGTAATCCGTATTTGTT (site GGCCACCCTAA),0.0118
2,GGCAACCCATGGACCGGTTTTCCCGGTAATCCGTATTTGTT (site GGCGACCCTAA),0.0135
3,GGCAACCCATGGACCGGTTTTCCCGGTAATCCGTATTTGTT (site GGCTACCCTAA),0.0252
4,GGCAATACATGGACCGGTTTTCCCGGTAATCCGTATTTGAA (site GGCAATACTTT),0.862
5,GGCAATACATGGACCGGTTTTCCCGGTAATCCGTATTTGAA (site GGCAATCCTTT),0.00332
6,GGCAATACATGGACCGGTTTTCCCGGTAATCCGTATTTGAA (site GGCAATGCTTT),0
7,GGCAATACATGGACCGGTTTTCCCGGTAATCCGTATTTGAA (site GGCAATTCTTT),0
8,GGCAATCCATGGACCGGTTTTCCCGGTAATCCGTATTTGAA (site AGCAATCCTTT),0.00634
9,GGCAATCCATGGACCGGTTTTCCCGGTAATCCGTATTTGAA (site CGCAATCCTTT),0
10,GGCAATCCATGGACCGGTTTTCCCGGTAATCCGTATTTGAA (site GACAATCCTTT),0
11,GGCAATCCATGGACCGGTTTTCCCGGTAATCCGTATTTGAA (site GCCAATCCTTT),0
12,GGCAATCCATGGACCGGTTTTCCCGGTAATCCGTATTTGAA (site GGAAATCCTTT),0
13,GGCAATCCATGGACCGGTTTTCCCGGTAATCCGTATTTGAA (site GGCAAACCTTT),0
14,GGCAATCCATGGACCGGTTTTCCCGGTAATCCGTATTTGAA (site GGCAACCCTTT),0.00936
15,GGCAATCCATGGACCGGTTTTCCCGGTAATCCGTATTTGAA (site GGCAAGCCTTT),0.0191
16,GGCAATCCATGGACCGGTTTTCCCGGTAATCCGTATTTGAA (site GGCAATACTTT),0.0044
17,GGCAATCCATGGACCGGTTTTCCCGGTAATCCGTATTTGAA (site GGCAATCCTAT),0
18,GGCAATCCATGGACCGGTTTTCCCGGTAATCCGTATTTGAA (site GGCAATCCTCT),0.0139
19,GGCAATCCATGGACCGGTTTTCCCGGTAATCCGTATTTGAA (site GGCAATCCTGT),0
20,GGCAATCCATGGACCGGTTTTCCCGGTAATCCGTATTTGAA (site GGCAATCCTTA),0.00549
21,GGCAATCCATGGACCGGTTTTCCCGGTAATCCGTATTTGAA (site GGCAATCCTTC),0.00387
22,GGCAATCCATGGACCGGTTTTCCCGGTAATCCGTATTTGAA (site GGCAATCCTTG),0
23,GGCAATCCATGGACCGGTTTTCCCGGTAATCCGTATTTGAA (site GGCAATCCTTT),0.434
24,GGCAATCCATGGACCGGTTTTCCCGGTAATCCGTATTTGAA (site GGCAATGCTTT),0.00508
25,GGCAATCCATGGACCGGTTTTCCCGGTAATCCGTATTTGAA (site GGCAATTCTTT),0

row,Sequence,recombinant UMI read abundance (log10)
1,GGCAATCCATGGACCGGTTTTCCCGGTAATCCGTATTTGAA (site GGCACTCCTTT),0
2,GGCAATCCATGGACCGGTTTTCCCGGTAATCCGTATTTGAA (site GGCAGTCCTTT),0
3,GGCAATCCATGGACCGGTTTTCCCGGTAATCCGTATTTGAA (site GGCATTCCTTT),0.0126
4,GGCAATCCATGGACCGGTTTTCCCGGTAATCCGTATTTGAA (site GGCCATCCTTT),0.0223
5,GGCAATCCATGGACCGGTTTTCCCGGTAATCCGTATTTGAA (site GGCGATCCTTT),0
6,GGCAATCCATGGACCGGTTTTCCCGGTAATCCGTATTTGAA (site GGCTATCCTTT),0.316
7,GGCAATCCATGGACCGGTTTTCCCGGTAATCCGTATTTGAA (site GGGAATCCTTT),0.0169
8,GGCAATCCATGGACCGGTTTTCCCGGTAATCCGTATTTGAA (site GGTAATCCTTT),0.00354
9,GGCAATCCATGGACCGGTTTTCCCGGTAATCCGTATTTGAA (site GTCAATCCTTT),0.236
10,GGCAATCCATGGACCGGTTTTCCCGGTAATCCGTATTTGAA (site TGCAATCCTTT),0.0119
11,GGCACTCCATGGACCGGTTTTCCCGGTAATCCGTATTTGAA (site GGCAATCCTTT),0
12,GGCACTCCATGGACCGGTTTTCCCGGTAATCCGTATTTGAA (site GGCACTCCTTT),0.248
13,GGCACTCCATGGACCGGTTTTCCCGGTAATCCGTATTTGAA (site GGCAGTCCTTT),0.00862
14,GGCACTCCATGGACCGGTTTTCCCGGTAATCCGTATTTGAA (site GGCATTCCTTT),0.00807
15,GGCAGGCCATGGACCGGTTTTCCCGGTAATCCGTATTTGCT (site GGCAGGCCTAG),0.861
16,GGCATGACATGGACCGGTTTTCCCGGTAATCCGTATTTGCC (site GGCATGACTGG),0
17,GGCCACACATGGACCGGTTTTCCCGGTAATCCGTATTTGTT (site GGCCACACTAA),0.485
18,GGCCACACATGGACCGGTTTTCCCGGTAATCCGTATTTGTT (site GGCCACCCTAA),0.035
19,GGCCACACATGGACCGGTTTTCCCGGTAATCCGTATTTGTT (site GGCCACGCTAA),0.0159
20,GGCCACACATGGACCGGTTTTCCCGGTAATCCGTATTTGTT (site GGCCACTCTAA),0.00795
21,GGCCACCCATGGACCGGTTTTCCCGGTAATCCGTATTTGAT (site GGCCACCCTAA),0.0182
22,GGCCACCCATGGACCGGTTTTCCCGGTAATCCGTATTTGAT (site GGCCACCCTAC),0.00622
23,GGCCACCCATGGACCGGTTTTCCCGGTAATCCGTATTTGAT (site GGCCACCCTAG),0
24,GGCCACCCATGGACCGGTTTTCCCGGTAATCCGTATTTGAT (site GGCCACCCTAT),0
25,GGCCAGCCATGGACCGGTTTTCCCGGTAATCCGTATTTGTA (site GGCCAGCCTTA),0.0264

# — the supplement of paper PMC11208160
